In the supplement of paper PMC10307832:

Assays:
Assay in all cases: relative viability (nuclei count vs DMSO), 5 days (fraction); higher = more cells survive
Avagacestat = compound: NC(=O)[C@@H](CCC(F)(F)F)N(Cc1ccc(-c2ncon2)cc1F)S(=O)(=O)c1ccc(Cl)cc1 [Avagacestat]
Procedure, shortened: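 Following overnight incubation at 37 °C, lung cancer cell lines in 1536-well plates were pinned with five library-drug doses (not always all listed) in √10 steps on vehicle-anchored plates. The cells then spent 5 days without medium change before a combined fix, permeabilisation and Hoechst stain, 4× imaging and MetaXpress nuclear counts. Viability is the treated-to-vehicle ratio of nuclei, taken as the median across plates. Only plates with control CV below 25% and at least one doubling passed.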

Avagacestat + Phenformin = compound: NC(=O)[C@@H](CCC(F)(F)F)N(Cc1ccc(-c2ncon2)cc1F)S(=O)(=O)c1ccc(Cl)cc1 [Avagacestat] + N=C(N)NC(=N)NCCc1ccccc1 [Phenformin] (partner 250 µM)
Procedure, shortened: (§1)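 Dosing by pin tool came one day after lung cancer cell lines were seeded in 1536-well plates, using either one drug or a fixed anchor-drug dose plus five library-drug doses (not always all listed) in √10 steps. After 5 days, nuclei were counted on 4× images. Relative viability is treated-well nuclei count divided by vehicle-well nuclei count, and values are medians of duplicate plates.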

Avagacestat + OSI-027 = compound: NC(=O)[C@@H](CCC(F)(F)F)N(Cc1ccc(-c2ncon2)cc1F)S(=O)(=O)c1ccc(Cl)cc1 [Avagacestat] + COc1cccc2cc(-c3nc([C@H]4CC[C@H](C(=O)O)CC4)n4ncnc(N)c34)[nH]c12 [OSI-027] (partner 0.5 µM)
Procedure, shortened: as §1

Avagacestat + Trametinib = compound: NC(=O)[C@@H](CCC(F)(F)F)N(Cc1ccc(-c2ncon2)cc1F)S(=O)(=O)c1ccc(Cl)cc1 [Avagacestat] + CC(=O)Nc1cccc(-n2c(=O)n(C3CC3)c(=O)c3c(Nc4ccc(I)cc4F)n(C)c(=O)c(C)c32)c1 [Trametinib] (partner 0.02 µM)
Procedure, shortened: as §1

Cell Line | relative viability (Avagacestat; 0.08 µM) | relative viability (Avagacestat; 0.253 µM) | relative viability (Avagacestat; 0.8 µM) | relative viability (Avagacestat; 2.53 µM) | relative viability (Avagacestat; 8 µM) | relative viability (Avagacestat + Phenformin; first compound 0.08 µM) | relative viability (Avagacestat + Phenformin; first compound 0.253 µM) | relative viability (Avagacestat + Phenformin; first compound 0.8 µM) | relative viability (Avagacestat + Phenformin; first compound 2.53 µM) | relative viability (Avagacestat + Phenformin; first compound 8 µM) | relative viability (Avagacestat + OSI-027; first compound 0.08 µM) | relative viability (Avagacestat + OSI-027; first compound 0.253 µM) | relative viability (Avagacestat + OSI-027; first compound 0.8 µM) | relative viability (Avagacestat + OSI-027; first compound 2.53 µM) | relative viability (Avagacestat + OSI-027; first compound 8 µM) | relative viability (Avagacestat + Trametinib; first compound 0.08 µM) | relative viability (Avagacestat + Trametinib; first compound 0.253 µM) | relative viability (Avagacestat + Trametinib; first compound 0.8 µM) | relative viability (Avagacestat + Trametinib; first compound 2.53 µM) | relative viability (Avagacestat + Trametinib; first compound 8 µM)
HCC-78 | 1.07 | 1.01 | 1.18 | 0.801 | 0.915 | 0.71 | 0.763 | 0.811 | 0.66 | 0.724 | 0.381 | 0.4 | 0.349 | 0.373 | 0.401 | 0.878 | 0.933 | 0.888 | 0.789 | 0.726
HCC-366 | 1.04 | 1.17 | 1.07 | 1.11 | 1.11 | 0.654 | 0.709 | 0.599 | 0.562 | 0.594 | 1.07 | 1.49 | 1.01 | 0.772 | 0.872 | 0.446 | 0.547 | 0.346 | 0.297 | 0.27
HCC-827 | 1.1 | 1.09 | 1.11 | 1.09 | 1.11 | 0.478 | 0.397 | 0.509 | 0.405 | 0.35 | 0.892 | 0.688 | 0.818 | 0.668 | 0.703 | 0.602 | 0.509 | 0.543 | 0.531 | 0.507
HOP-62 | 1.15 | 1.17 | 1.03 | 0.991 | 0.895 | 0.874 | 0.775 | 0.76 | 0.657 | 0.492 | 1.16 | 0.895 | 0.737 | 0.609 | 0.63 | 0.381 | 0.372 | 0.4 | 0.323 | 0.304
IA-LM | 1.83 | 1.62 | 1.44 | 1.51 | 1.26 | – | – | – | – | – | – | – | – | – | – | – | – | – | – | –
LC-2-ad | 1.02 | 0.985 | 1.11 | 1.03 | 0.96 | 0.577 | 0.651 | 0.713 | 0.602 | 0.554 | 0.796 | 0.898 | 0.855 | 0.795 | 0.739 | 0.99 | 0.965 | 0.962 | 0.911 | 0.856
LCLC-97TM1 | 1.08 | 1.09 | 1.2 | 1 | 0.829 | 0.526 | 0.472 | 0.487 | 0.481 | 0.468 | 0.562 | 0.674 | 0.424 | 0.694 | 0.518 | 0.241 | 0.251 | 0.266 | 0.174 | 0.22
LCLC-103H | 0.994 | 0.928 | 0.921 | 0.929 | 0.941 | 0.344 | 0.298 | 0.348 | 0.343 | 0.294 | 0.488 | 0.531 | 0.438 | 0.409 | 0.406 | 0.721 | 0.726 | 0.772 | 0.567 | 0.61
LK-2 | 1.28 | 1.22 | 0.784 | 0.604 | 0.874 | 0.6 | 0.36 | 0.32 | 0.384 | 0.375 | 0.189 | 0.206 | 0.162 | 0.181 | 0.212 | 1.02 | 0.917 | 0.651 | – | 0.747
